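96-well plates; 48 h exposure; 5 concentrations. Endpoints by linear interpolation between flanking doses. Not reached: highest tested concentration assigned. GI50 marks 50% less growth.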 Active and inactive are the calls of the source. Cut-off read from the data, not from the text of the source: active = GI50 up to about 1.1 µM and inactive = higher.
Assays:
Test in all cases: DTP human tumour cell line panel, 48 h
[1] = tested on: 786-0
[2] = tested on: ACHN
[3] = tested on: DU-145
[4] = tested on: HOP-62
[5] = tested on: HT-29
[6] = tested on: LOX IMVI
[7] = tested on: NCI-H226
[8] = tested on: NCI/ADR-RES
[9] = tested on: OVCAR-3
[10] = tested on: OVCAR-4
[11] = tested on: OVCAR-5
[12] = tested on: RPMI-8226
[13] = tested on: RXF 393
[14] = tested on: SN12C
[15] = tested on: SNB-19
[16] = tested on: SR
[17] = tested on: SW-620
[18] = tested on: TK-10
[19] = tested on: UACC-62
[20] = tested on: UO-31

Measured: GI50

C=C(C)CN(CC#N)CC(=C)C
inactive: [1] > 100 µM | [2] > 100 µM | [3] > 100 µM | [4] > 100 µM | [5] > 100 µM | [6] > 100 µM | [7] > 100 µM | [8] > 100 µM | [9] > 100 µM | [10] > 100 µM | [11] > 100 µM | [12] > 100 µM | [13] > 100 µM | [14] > 100 µM | [15] > 100 µM | [16] > 100 µM | [17] > 100 µM | [18] > 100 µM | [19] > 100 µM | [20] > 100 µM

CSc1ccc2c(c1)N(CCCN(C)C)c1ccccc1S2
inactive: [1] 13.7 µM | [2] 11.7 µM | [3] 15.6 µM | [4] 14 µM | [5] 6.78 µM | [6] 11.6 µM | [7] 19.8 µM | [8] 12.1 µM | [9] 12.8 µM | [10] 11.5 µM | [11] 15.3 µM | [12] 12.2 µM | [13] 7.55 µM | [14] 13.1 µM | [15] 16.2 µM | [16] 6.19 µM | [17] 15.2 µM | [18] 14.9 µM | [19] 10.4 µM

O=C(Nc1nc(C23CC4CC(CC(C4)C2)C3)cs1)c1c(O)c2ccccc2[nH]c1=O
inactive: [1] > 100 µM | [2] > 100 µM | [3] > 100 µM | [4] > 100 µM | [5] > 100 µM | [6] > 100 µM | [7] > 100 µM | [8] > 100 µM | [9] > 100 µM | [10] 60.5 µM | [11] > 100 µM | [12] > 100 µM | [13] 53.6 µM | [14] > 100 µM | [15] > 100 µM | [16] > 100 µM | [17] > 100 µM | [18] > 100 µM | [20] > 100 µM

COc1c(O)cc2c3c(ccnc13)NC=C2
inactive: [1] 41.9 µM | [2] 55.7 µM | [3] > 100 µM | [5] 16.9 µM | [6] 61.1 µM | [7] > 100 µM | [8] > 100 µM | [9] 12.4 µM | [10] > 100 µM | [11] > 100 µM | [12] > 100 µM | [13] 18.1 µM | [14] > 100 µM | [15] > 100 µM | [16] 17.3 µM | [17] 68.2 µM | [18] > 100 µM | [19] > 100 µM | [20] 36.8 µM

COc1cc(OC)cc(Oc2nc3ccccc3nc2C(=O)O)c1
inactive: [1] > 100 µM | [2] > 100 µM | [3] > 100 µM | [4] > 100 µM | [5] > 100 µM | [6] > 100 µM | [7] > 100 µM | [8] > 100 µM | [9] > 100 µM | [11] > 100 µM | [12] > 100 µM | [13] > 100 µM | [15] > 100 µM | [16] > 100 µM | [17] > 100 µM | [18] > 100 µM | [19] > 100 µM | [20] > 100 µM
active: [10] 0.6 µM

CS(=O)(=O)c1ccc(C2=C(c3ccccc3)C(=O)OC2)cc1 [ROFECOXIB]
inactive: [1] > 100 µM | [2] > 100 µM | [3] > 100 µM | [4] > 100 µM | [6] > 100 µM | [7] > 100 µM | [8] > 100 µM | [9] > 100 µM | [10] > 100 µM | [11] > 100 µM | [12] > 100 µM | [13] > 100 µM | [14] > 100 µM | [15] > 100 µM | [16] > 100 µM | [17] > 100 µM | [18] > 100 µM | [19] > 100 µM | [20] > 100 µM

Source: ChEMBL document CHEMBL1201862, “PubChem BioAssay data set” (2004)
